Tests used:
Assay in all cases: Petri dish test for herbicide bioactivity (NY/T 1155.1-2006)
Assay type in all cases: in vivo
Conditions in all cases: 7 days after treatment
[1] = system: Echinochloa crusgalli (L.) Beauv
Excerpt: (§1) Test standard:NY/T 1155.1-2006 Pesticides guidelines for laboratory bioactivity tests. Part 1:Petri dish test for herbicide bioactivity
(§2) Targets: Echinochloa crusgalli (L.) Beauv, Panicum acroanthum Steud., Solanum nigrum L., Chenopodium album L.
(§3) Test agent:ethyl 2-(4-nitro-2-trifluoromethylphenyl)-2-cyanopropanoate prepared in Example 1
(§4) The test agent was weighed and dissolved in DMF to obtain a mother liquor. different amounts of mother liquor were weighed and diluted into water to prepare different doses of the test agent.
(§5) Test method:Petri dish test
(§6) 1 test agent, 1 CK (clean water control), 4 targets, and 2 replicate tests per treatment were required. Test method includes the following steps:putting two filter papers on a Petri dish with a diameter of 9 cm; adding 8 mL of the prepared test agent of different concentrations; putting 10 uniform weed seeds; and then placing in an incubator (30° C./25° C., light for 12 h/for dark 12 h). After treatment, the growth state of the test target was regularly observed, the comprehensive growth inhibition rate of each agent was visually investigated with CK about 7 days after the treatment, and the number of seedlings, stem length and root length of plants were measured, and the mergence rate, stem length, and root length and inhibition rate were calculated compared with CK.

[2] = system: Panicum acroanthum Steud.
Excerpt: as §1, §2, §3, §4, §5, §6

Chenopodium album L. = system: Chenopodium album L.
Excerpt: as §1, §2, §3, §4, §5, §6

Solanum nigrum L. = system: Solanum nigrum L.
Excerpt: as §1, §2, §3, §4, §5, §6

CCOC(=O)C(C)(C#N)c1ccc([N+](=O)[O-])cc1C(F)(F)F (stereo not drawn) [ethyl 2-(4-nitro-2-trifluoromethylphenyl)-2-cyanopropanoate]
Emergence rate, inhibition rate ([1]; agent concentration 500): 100.0% | Root length, inhibition rate ([1]; agent concentration 500): 100.0% | Stem length, inhibition rate ([1]; agent concentration 500): 100.0% | Emergence rate, inhibition rate ([1]; agent concentration 1000): 100.0% | Root length, inhibition rate ([1]; agent concentration 1000): 100.0% | Stem length, inhibition rate ([1]; agent concentration 1000): 100.0% | Emergence rate, inhibition rate ([2]; agent concentration 500): 100.0% | Root length, inhibition rate ([2]; agent concentration 500): 100.0% | Stem length, inhibition rate ([2]; agent concentration 500): 100.0% | Emergence rate, inhibition rate ([2]; agent concentration 1000): 100.0% | Root length, inhibition rate ([2]; agent concentration 1000): 100.0% | Stem length, inhibition rate ([2]; agent concentration 1000): 100.0% | Emergence rate, inhibition rate (Chenopodium album L.; agent concentration 100): 63.6% | Root length, inhibition rate (Chenopodium album L.; agent concentration 100): 100.0% | Stem length, inhibition rate (Chenopodium album L.; agent concentration 100): 70.4% | Emergence rate, inhibition rate (Chenopodium album L.; agent concentration 500): 100.0% | Root length, inhibition rate (Chenopodium album L.; agent concentration 500): 100.0% | Stem length, inhibition rate (Chenopodium album L.; agent concentration 500): 100.0% | Emergence rate, inhibition rate (Chenopodium album L.; agent concentration 1000): 100.0% | Root length, inhibition rate (Chenopodium album L.; agent concentration 1000): 100.0% | Stem length, inhibition rate (Chenopodium album L.; agent concentration 1000): 100.0% | Emergence rate, inhibition rate (Solanum nigrum L.; agent concentration 500): 100.0% | Root length, inhibition rate (Solanum nigrum L.; agent concentration 500): 100.0% | Stem length, inhibition rate (Solanum nigrum L.; agent concentration 500): 100.0% | Emergence rate, inhibition rate (Solanum nigrum L.; agent concentration 1000): 100.0% | Root length, inhibition rate (Solanum nigrum L.; agent concentration 1000): 100.0% | Stem length, inhibition rate (Solanum nigrum L.; agent concentration 1000): 100.0%
